Where “and” joins values, the source holds several entries; their conditions need not be identical. Identical values can stand only once.
Experiments:
[1] = Rat biodistribution 1 hour after tail vein injection; assay type: in vivo, Sprague-Dawley rats; details: for Activity in the thyroid / Radioactivity in / cleared from the body: rats
Procedure: (§1) The radioiodinated HBS (^131I-HBS) solution (100 μL), prepared in Example 3, was injected […] into a tail vein of three Sprague-Dawley rats (180-220 g). After one hour, the animals were sacrificed and the tissues and organs of interest were removed and weighed. The amount of radioactivity in each organ was determined by counting the tissue sample with a sodium iodide detector coupled to a multi-channel analyzer. The counts in the tissues were compared to the average counts of three 100 μL aliquots of ^131I-HBS counted in the same manner. The percentage of dose in the bone was calculated by assuming the femur to represent 1/25 the weight of the total skeletal system. The blood dose was calculated by assuming that blood comprises 6.5% of the total body weight. Muscle dose was calculated by assuming that muscle comprises 43% of the total body weight.
The biodistribution of the radioiodinated tyramine prepared in Example 6 was determined as in Example 4 (using 2 rats).

[2] = Two hour rat biodistribution after intrathecal administration; assay type: in vivo, Sprague-Dawley rats
Procedure: as §1
An I-HBS solution was prepared as in Example 3. Twenty μL of this solution was injected intrathecally in two Sprague-Dawley rats (100-150 g). After two hours the rats were sacrificed and dissected. The amount of radio activity in various organs and tissues was determined as in Example 4.

[3] = target: T1, thyroxine-binding globulin (Homo sapiens, UniProt P05543); details: concentrations up to 0.2 mM; cited from earlier work
T1 sequence (P05543 21-415): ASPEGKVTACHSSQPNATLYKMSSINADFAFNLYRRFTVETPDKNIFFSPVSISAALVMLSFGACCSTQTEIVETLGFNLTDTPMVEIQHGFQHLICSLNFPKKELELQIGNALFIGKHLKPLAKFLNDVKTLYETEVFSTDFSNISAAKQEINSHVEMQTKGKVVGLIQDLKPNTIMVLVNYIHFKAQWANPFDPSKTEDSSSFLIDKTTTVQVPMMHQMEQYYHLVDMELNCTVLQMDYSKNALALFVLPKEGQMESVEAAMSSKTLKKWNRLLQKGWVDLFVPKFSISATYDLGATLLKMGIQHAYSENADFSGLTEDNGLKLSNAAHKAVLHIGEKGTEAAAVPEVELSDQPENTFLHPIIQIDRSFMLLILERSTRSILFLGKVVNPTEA

prealbumin = prealbumin (Homo sapiens, UniProt P02766); details: concentrations up to 0.2 mM; cited from earlier work
albumin = albumin (Homo sapiens, UniProt P02768); details: concentrations up to 0.2 mM; cited from earlier work
Chain of albumin (P02768 25-609, species assumed): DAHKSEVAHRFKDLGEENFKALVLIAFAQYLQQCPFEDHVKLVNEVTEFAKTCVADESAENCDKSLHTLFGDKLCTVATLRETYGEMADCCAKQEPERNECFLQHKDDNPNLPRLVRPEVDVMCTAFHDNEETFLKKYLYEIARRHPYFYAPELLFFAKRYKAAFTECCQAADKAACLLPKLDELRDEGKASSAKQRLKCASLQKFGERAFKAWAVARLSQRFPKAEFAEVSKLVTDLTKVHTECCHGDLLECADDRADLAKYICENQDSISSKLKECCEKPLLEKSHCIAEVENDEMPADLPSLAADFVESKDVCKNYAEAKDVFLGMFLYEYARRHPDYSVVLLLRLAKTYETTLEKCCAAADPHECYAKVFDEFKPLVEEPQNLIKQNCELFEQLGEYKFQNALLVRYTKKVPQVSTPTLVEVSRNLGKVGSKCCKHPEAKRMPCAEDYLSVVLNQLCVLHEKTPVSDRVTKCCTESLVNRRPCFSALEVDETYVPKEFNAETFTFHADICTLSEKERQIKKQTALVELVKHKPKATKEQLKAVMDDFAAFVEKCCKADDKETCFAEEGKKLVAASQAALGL

[4] = 1 hour post injection, tail vein
[5] = average of three rats, 1 Hour After Injection, tail vein
[6] = individual rat, 1 Hour After Injection, tail vein
[7] = average of two rats, two hours after intrathecal administration of 20 μL
[8] = two hours after intrathecal administration, rats
[9] = average of 2 rats, determined as in Example 4 (percent of dose, 1 hour post injection, tail vein)
[10] = individual rat, determined as in Example 4 (percent of dose, 1 hour post injection, tail vein)

O=S(=O)([O-])c1ccc(O)c([131I])c1.[Na+] [^131I-HBS]
Activity in the urine ([1]; 1 hour post injection, all animals): Almost all the activity
Activity in the thyroid [1, 4]: lack of activity
Radioactivity in / cleared from the body [1, 4]: very little activity
Percent Injected Dose, Heart, Average [1, 5]: 0.01 Percent Injected Dose
Percent Injected Dose, Kidney, Average [1, 5]: 0.12 Percent Injected Dose
Percent Injected Dose, Lg. Int., Average [1, 5]: 0.08 Percent Injected Dose
Percent Injected Dose, Liver, Average [1, 5]: 0.06 Percent Injected Dose
Percent Injected Dose, Lung, Average [1, 5]: 0.02 Percent Injected Dose
Percent Injected Dose, Sm Int., Average [1, 5]: 1.10 Percent Injected Dose
Percent Injected Dose, Spleen, Average [1, 5]: 0.00 Percent Injected Dose
Percent Injected Dose, Stomach, Average [1, 5]: 0.29 Percent Injected Dose
Percent Injected Dose, Tail, Average [1, 5]: 0.08 Percent Injected Dose
Percent Injected Dose, Thyroid, Average [1, 5]: 0.00 Percent Injected Dose
Percent Injected Dose, Blood, Average ([1]; average of three rats, 1 Hour After Injection, tail vein, blood taken as 6.5% of body weight): 0.16 Percent Injected Dose
Percent Injected Dose, Bone, Average ([1]; average of three rats, 1 Hour After Injection, tail vein, femur taken as 1/25 of skeleton): 1.00 Percent Injected Dose
Percent Injected Dose, Muscle, Average ([1]; average of three rats, 1 Hour After Injection, tail vein, muscle taken as 43% of body weight): 0.40 Percent Injected Dose
Percent Injected Dose, Heart [1, 6]: 0.01 Percent Injected Dose (2×) and 0.02 Percent Injected Dose
Percent Injected Dose, Kidney [1, 6]: 0.19 Percent Injected Dose and 0.10 Percent Injected Dose and 0.08 Percent Injected Dose
Percent Injected Dose, Lg. Int. [1, 6]: 0.08 Percent Injected Dose and 0.12 Percent Injected Dose and 0.05 Percent Injected Dose
Percent Injected Dose, Liver [1, 6]: 0.05 Percent Injected Dose and 0.08 Percent Injected Dose and 0.06 Percent Injected Dose
Percent Injected Dose, Lung [1, 6]: 0.01 Percent Injected Dose and 0.03 Percent Injected Dose and 0.02 Percent Injected Dose
Percent Injected Dose, Sm Int. [1, 6]: 1.51 Percent Injected Dose and 0.67 Percent Injected Dose and 1.24 Percent Injected Dose
Percent Injected Dose, Spleen [1, 6]: 0.01 Percent Injected Dose (2×) and 0.00 Percent Injected Dose
Percent Injected Dose, Stomach [1, 6]: 0.33 Percent Injected Dose and 0.31 Percent Injected Dose and 0.24 Percent Injected Dose
Percent Injected Dose, Tail [1, 6]: 0.01 Percent Injected Dose and 0.16 Percent Injected Dose and 0.09 Percent Injected Dose
Percent Injected Dose, Thyroid [1, 6]: 0.00 Percent Injected Dose
Percent Injected Dose, Blood ([1]; individual rat, 1 Hour After Injection, tail vein, blood taken as 6.5% of body weight): 0.14 Percent Injected Dose and 0.18 Percent Injected Dose and 0.15 Percent Injected Dose
Percent Injected Dose, Bone ([1]; individual rat, 1 Hour After Injection, tail vein, femur taken as 1/25 of skeleton): 0.37 Percent Injected Dose and 0.16 Percent Injected Dose
Percent Injected Dose, Muscle ([1]; individual rat, 1 Hour After Injection, tail vein, muscle taken as 43% of body weight): 0.88 Percent Injected Dose and 0.38 Percent Injected Dose and 0.05 Percent Injected Dose
% Injected Dose, Bladder [2, 7]: 0.3 % Injected Dose
% Injected Dose, Blood [2, 7]: 0.7 % Injected Dose
% Injected Dose, Bone [2, 7]: 1.3 % Injected Dose
% Injected Dose, Brain [2, 7]: 1.6 % Injected Dose
% Injected Dose, Caecum [2, 7]: 0.0 % Injected Dose
% Injected Dose, Colon [2, 7]: 0.9 % Injected Dose
% Injected Dose, Heart [2, 7]: 0.0 % Injected Dose
% Injected Dose, Kidney [2, 7]: 0.3 % Injected Dose
% Injected Dose, Liver [2, 7]: 0.2 % Injected Dose
% Injected Dose, Lung [2, 7]: 0.0 % Injected Dose
% Injected Dose, Muscle [2, 7]: 0.5 % Injected Dose
% Injected Dose, Sm. Intestine [2, 7]: 0.5 % Injected Dose
% Injected Dose, Spleen [2, 7]: 0.0 % Injected Dose
% Injected Dose, Stomach [2, 7]: 0.3 % Injected Dose
% Injected Dose, Thyroid [2, 7]: 0.0 % Injected Dose
% Injected Dose, Urine ([2]; average of two rats, two hours after intrathecal administration of 20 μL, recovery of urine may have been less than quantitative): 88 % Injected Dose
Clearance of radioactivity through the kidney [2, 8]: had cleared the kidney
Radioactivity present in the thyroid [2, 8]: little or no radioactivity

O=S(=O)(O)c1cc(I)c(O)c(I)c1 [diiodophenolsulphonic acid, 3,5-diiodo-4-hydroxybenzenesulphonic acid]
Displacement of triiodothyronine from thyroxine-binding globulin [3]: did not displace
Displacement of thyroxine from prealbumin-binding sites (prealbumin): did selectively display thyroxine
Displacement of triiodothyronine from albumin (albumin): did not displace

NCCc1ccc(O)c([131I])c1 [radioiodinated tyramine]
Activity in the thyroid [1, 4]: very little
Radioactivity in / cleared from the body [1, 4]: most radioactivity had cleared the body
Biodistribution, Blood, Average [1, 9]: 1.13
Biodistribution, Bone, Average [1, 9]: 0.25
Biodistribution, Heart, Average [1, 9]: 0.03
Biodistribution, Kidney, Average [1, 9]: 0.26
Biodistribution, Lg. Int., Average [1, 9]: 1.24
Biodistribution, Liver, Average [1, 9]: 0.52
Biodistribution, Lung, Average [1, 9]: 0.15
Biodistribution, Muscle, Average [1, 9]: 1.09
Biodistribution, Sm. Int., Average [1, 9]: 4.07
Biodistribution, Spleen, Average [1, 9]: 0.01
Biodistribution, Stomach, Average [1, 9]: 0.43
Biodistribution, Tail, Average [1, 9]: 0.49
Biodistribution, Thyroid, Average [1, 9]: 0.09
Biodistribution, Blood [1, 10]: 1.19 and 1.06
Biodistribution, Bone [1, 10]: 0.30 and 0.20
Biodistribution, Heart [1, 10]: 0.03 and 0.02
Biodistribution, Kidney [1, 10]: 0.26 and 0.25
Biodistribution, Lg. Int. [1, 10]: 0.46 and 2.02
Biodistribution, Liver [1, 10]: 0.46 and 0.57
Biodistribution, Lung [1, 10]: 0.03 and 0.26
Biodistribution, Muscle [1, 10]: 1.31 and 0.87
Biodistribution, Sm. Int. [1, 10]: 3.47 and 4.67
Biodistribution, Spleen [1, 10]: 0.01
Biodistribution, Stomach [1, 10]: 0.37 and 0.48
Biodistribution, Tail [1, 10]: 0.77 and 0.20
Biodistribution, Thyroid [1, 10]: 0.12 and 0.07
